In assay [1] the test system is IFN-γ. Put plainly: Selectivity assay (SEAP) IFN-γ reporter cells. In kind it is cell-based. To be noted: Homo sapiens, IFN-γ reporter cells on HEK293 background, read-out: Selectivity assays (SEAP) nM or E-Max % IFN-γ.
Assay [2] has as its target T1, TYK2-JH1 (Homo sapiens, UniProt P29597).
T1 construct: recombinant purified His or GST-tagged catalytic domain for each enzyme; made in house
T1 sequence (P29597 897-1176 limits assumed): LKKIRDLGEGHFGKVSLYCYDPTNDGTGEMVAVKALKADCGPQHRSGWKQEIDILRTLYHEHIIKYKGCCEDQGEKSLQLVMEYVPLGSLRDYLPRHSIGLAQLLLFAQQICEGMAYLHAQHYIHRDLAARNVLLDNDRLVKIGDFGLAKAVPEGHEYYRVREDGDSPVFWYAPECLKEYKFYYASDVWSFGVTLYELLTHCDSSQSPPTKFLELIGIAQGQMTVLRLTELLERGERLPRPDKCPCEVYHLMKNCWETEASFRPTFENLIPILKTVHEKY
Put plainly: HTRF-based selectivity assay, TYK2 catalytic domain. Type of assay: biochemical. To be noted: kinase domain (JH1), ATP 20 μM. Here is the method:
(§1) The ability of compounds to inhibit the activity of JAK1, JAK2, JAK3 and TYK2 is measured using a recombinant purified His or GST-tagged catalytic domain for each enzyme (JAK1, JAK2 and TYK2 are generated in-house; JAK3 was purchased from Carna biosciences, Cat #08-046) in an HTRF format biochemical assay. The reactions employs a commercial peptide substrate from Cisbio (Cat #62TK0PEC). The basic assay protocol is as follows: first, 2.5 µL of diluted compounds (4×) in DMSO are dispensed into a 384-well Optiplate. Next, 2.5 μL of enzyme (final concentrations for enzymes are: TYK2-700 ng/mL, JAK1-80.6 ng/mL, JAK2-2.1 ng/mL and JAK3-171.8 ng/mL) is added and incubated at RT for 5-20 min. Finally, 5 μl of mixture of 2×ATP [Final concentration 20 μM for TYK2, 21.43 μM for JAK1, 14.7 μM for JAK2 and 2.12 μM for JAK3]+2× Substrate [Final concentration 217 nM for TYK2, 454.7 nM for JAK1, 200 nM for JAK2 and 257.4 nM for JAK3] is added to 384 well Optiplate. Composition of Kinase assay buffer used in the assay is as follows: HEPES 50 mM, EGTA 1 mM, MgCl2 10 mM, DTT2 mM, Tween-20 0.010 and water. Then the plates are shaken and then incubated at 26.5° C. for 60 min. At the end of the incubation, 10 μL of mixture of 2× detection mix [(EU3+Cryptate (1×)+Streptavidin-XL665 (final concentration: 62.5 nM) (HTRF KinEASE-TK kit Cat #62TK0PEC)] is added to the assay plate, shaken and incubated at 26.5° C. for 60 min. Plates are then read on a Perkin Elmer Envision for HTRF signal (665 nm reading/615 nm reading). After normalization to untreated controls, the percent inhibition of the HTRF signal at each compound concentration is calculated. The plot of percent inhibition versus the log of compound concentration is fit with a 4-parameter dose response equation to calculate IC50 values.

Assay [3] has as its target T2, JAK2-JH1 (Homo sapiens, UniProt O60674).
T2 construct: recombinant purified His or GST-tagged catalytic domain for each enzyme; made in house
Nature of the assay: HTRF-based selectivity assay, JAK2 catalytic domain. Particulars: kinase domain (JH1), ATP 14.7 μM. Type of assay: biochemical. The method, then: as §1

Assay [4] concerns the target T3, TYK2 (Homo sapiens, UniProt P29597). Nature of the assay: HEK-Blue IL-23 reporter assay (SEAP) for TYK2 pseudokinase inhibition. In kind it is cell-based. Also on record: HEK-Blue™ IL-23 and IFNα/β cells with a stably-integrated cytokine receptor and STAT3 or STAT1; host or cells: HEK-Blue IL-23 / HEK-Blue IFNα/β cells (HEK293 background). Particulars: HEK-Blue IL-23 cells, 10 ng/mL human recombinant IL-23, SEAP reporter; read-out: IL23 IC50. The method in brief: (§2)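 HEK-Blue cells carrying cytokine receptor and STAT3 or STAT1 SEAP reporter, pretreated 60 min with compound, then stimulated with 10 ng/mL IL-23 (22–24 h) or 1 ng/mL IFNα (16–18 h). SEAP read with QUANTI-Blue; IC50 by non-linear regression versus no-inhibitor and unstimulated controls.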
A general note: A reporter such as luciferase makes a cellular process visible.

Assay [5] concerns the target T3, TYK2. Put plainly: HEK-Blue IFNα/β reporter assay (SEAP) for TYK2 pseudokinase inhibition. Type of assay: cell-based. Particulars: HEK-Blue IFNα/β cells, 1 ng/mL human recombinant IFNα. The method in brief: as §2
Assay [6] addresses T4, JAK1-JH1 (Homo sapiens, UniProt P23458).
T4 construct: recombinant purified His or GST-tagged catalytic domain for each enzyme; made in house
Nature of the assay: HTRF-based selectivity assay, JAK1 catalytic domain. In kind it is biochemical. To be noted: kinase domain (JH1), ATP 21.43 μM. Here is the method: as §1
Background: Time-resolved FRET reads energy transfer from a long-lived donor to a nearby acceptor.

In assay [7] the target is T5, JAK3-JH1 (Homo sapiens, UniProt P52333).
T5 construct: recombinant purified His or GST-tagged catalytic domain for each enzyme; purchased Carna biosciences 08-046
T5 sequence (P52333 822-1111 limits assumed): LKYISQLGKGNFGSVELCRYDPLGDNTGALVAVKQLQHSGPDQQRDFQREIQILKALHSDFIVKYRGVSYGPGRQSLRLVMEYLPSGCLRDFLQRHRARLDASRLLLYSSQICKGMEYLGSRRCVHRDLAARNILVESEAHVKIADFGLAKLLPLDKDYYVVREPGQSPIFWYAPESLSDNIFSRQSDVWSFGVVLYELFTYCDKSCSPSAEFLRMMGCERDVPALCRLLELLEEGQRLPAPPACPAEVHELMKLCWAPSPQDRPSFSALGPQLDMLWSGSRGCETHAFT
Put plainly: HTRF-based selectivity assay, JAK3 catalytic domain. Particulars: kinase domain (JH1), ATP 2.12 μM. In kind it is biochemical. Here is the method:
as §1

Assay [8] deals with IL-2. Nature of the assay: Selectivity assay (SEAP) IL-2 reporter cells. In kind it is cell-based. Particulars: Homo sapiens, IL-2 reporter cells on HEK293 background, read-out: Selectivity assays (SEAP) nM or E-Max % IL-2.

T2 sequence (O60674 849-1124 limits assumed): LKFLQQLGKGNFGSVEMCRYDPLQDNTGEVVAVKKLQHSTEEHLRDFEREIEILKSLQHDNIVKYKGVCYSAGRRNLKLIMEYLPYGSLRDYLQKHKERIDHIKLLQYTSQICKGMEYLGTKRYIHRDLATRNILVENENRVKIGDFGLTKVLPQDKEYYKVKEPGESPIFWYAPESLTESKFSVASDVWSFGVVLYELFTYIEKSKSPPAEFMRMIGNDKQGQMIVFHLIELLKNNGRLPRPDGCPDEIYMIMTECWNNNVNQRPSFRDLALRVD
T4 sequence (P23458 875-1153 limits assumed): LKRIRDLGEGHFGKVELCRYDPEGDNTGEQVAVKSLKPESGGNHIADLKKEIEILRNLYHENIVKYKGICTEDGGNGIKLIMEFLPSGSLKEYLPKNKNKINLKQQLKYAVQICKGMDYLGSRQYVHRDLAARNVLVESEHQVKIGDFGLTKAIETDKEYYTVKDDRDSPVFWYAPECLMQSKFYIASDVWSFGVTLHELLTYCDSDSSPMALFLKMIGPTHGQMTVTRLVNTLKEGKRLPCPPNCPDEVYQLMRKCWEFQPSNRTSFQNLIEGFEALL
T3 sequence (P29597 whole entry): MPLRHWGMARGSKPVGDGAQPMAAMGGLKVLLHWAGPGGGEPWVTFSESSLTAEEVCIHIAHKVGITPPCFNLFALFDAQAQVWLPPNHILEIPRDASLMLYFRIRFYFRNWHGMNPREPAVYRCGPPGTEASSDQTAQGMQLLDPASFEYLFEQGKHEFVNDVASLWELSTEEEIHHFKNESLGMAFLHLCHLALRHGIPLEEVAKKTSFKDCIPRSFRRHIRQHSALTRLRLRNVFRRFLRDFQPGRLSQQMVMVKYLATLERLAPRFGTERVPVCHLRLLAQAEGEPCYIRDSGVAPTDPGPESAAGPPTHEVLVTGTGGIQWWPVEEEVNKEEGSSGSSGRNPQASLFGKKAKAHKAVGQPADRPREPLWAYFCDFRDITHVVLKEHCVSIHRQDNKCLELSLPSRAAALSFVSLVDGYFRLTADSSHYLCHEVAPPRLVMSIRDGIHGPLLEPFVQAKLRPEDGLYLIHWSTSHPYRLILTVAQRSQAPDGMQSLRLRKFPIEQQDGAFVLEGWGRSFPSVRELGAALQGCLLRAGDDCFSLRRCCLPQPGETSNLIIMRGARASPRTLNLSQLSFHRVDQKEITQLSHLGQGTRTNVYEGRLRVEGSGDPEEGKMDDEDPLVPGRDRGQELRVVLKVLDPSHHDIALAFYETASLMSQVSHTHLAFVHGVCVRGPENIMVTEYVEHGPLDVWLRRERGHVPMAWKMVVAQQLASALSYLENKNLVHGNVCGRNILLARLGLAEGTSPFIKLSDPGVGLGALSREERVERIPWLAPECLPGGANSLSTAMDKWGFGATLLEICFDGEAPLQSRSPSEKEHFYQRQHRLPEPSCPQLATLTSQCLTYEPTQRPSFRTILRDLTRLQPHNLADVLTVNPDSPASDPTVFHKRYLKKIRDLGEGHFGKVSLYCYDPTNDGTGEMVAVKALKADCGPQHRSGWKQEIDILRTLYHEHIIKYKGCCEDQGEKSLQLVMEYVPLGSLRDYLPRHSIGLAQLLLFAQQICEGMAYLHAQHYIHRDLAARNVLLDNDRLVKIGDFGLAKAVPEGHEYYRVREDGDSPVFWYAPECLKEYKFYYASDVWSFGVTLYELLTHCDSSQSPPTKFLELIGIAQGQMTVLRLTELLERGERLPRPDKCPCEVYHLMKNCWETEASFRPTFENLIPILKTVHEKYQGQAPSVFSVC

With `O=c1[nH]n(-c2ccccc2)c2cc(Nc3ccc(F)cn3)ncc12` [Compound I-2, 6-((5-fluoropyridin-2-yl)amino)-1-phenyl-1,2-dihydro-3H-pyrazolo[4,3-c]pyridin-3-one], the IC50 in assay [1] is 30000 to 90000 nM; in assay [2], 30 to 90 µM; in assay [3], 10 to 30 µM; in assay [4] it was less than 10 µM; in assay [5] it was less than 10 µM; in assay [6], 30 to 90 µM. Also, the IC50 in assay [7] was less than 10 µM; in assay [8] it was greater than 90000 nM.
As to `COc1cccc(-n2[nH]c(=O)c3cnc(Nc4cc(C)nc(C)n4)cc32)c1F` [Compound I-37, 6-((2,6-dimethylpyrimidin-4-yl)amino)-1-(2-fluoro-3-methoxyphenyl)-1,2-dihydro-3H-pyrazolo[4,3-c]pyridin-3-one], the IC50 in assay [1] is greater than 90000 nM; in assay [2], greater than 90 µM; in assay [3], greater than 90 µM; in assay [4], less than 10 µM; in assay [5], less than 10 µM; in assay [6] it was greater than 90 µM. Also, the IC50 in assay [7] is greater than 90 µM; in assay [8], greater than 90000 nM.
With `COc1cccc(-n2[nH]c(=O)c3cnc(Nc4ccnc(C)n4)cc32)c1` [Compound I-49, 1-(3-methoxyphenyl)-6-((2-methylpyrimidin-4-yl)amino)-1,2-dihydro-3H-pyrazolo[4,3-c]pyridin-3-one], the IC50 in assay [1] was greater than 90000 nM; in assay [2], greater than 90 µM; in assay [3], greater than 90 µM; in assay [4], less than 10 µM; in assay [5] it was less than 10 µM; in assay [6], greater than 90 µM. Moreover, the IC50 in assay [7] was greater than 90 µM; in assay [8], greater than 90000 nM.
`Cc1cc(Nc2cc3c(cn2)c(=O)[nH]n3-c2cccc(F)c2)nc(C)n1` [Compound I-59, 6-((2,6-dimethylpyrimidin-4-yl)amino)-1-(3-fluorophenyl)-1,2-dihydro-3H-pyrazolo[4,3-c]pyridin-3-one]: the IC50 in assay [1] was greater than 90000 nM; in assay [2], greater than 90 µM; in assay [3] it was greater than 90 µM; in assay [4], less than 10 µM; in assay [5], less than 10 µM; in assay [6] it was greater than 90 µM. In addition, the values for the IC50 in assay [7] and in assay [8] were greater than 90 µM and greater than 90000 nM, respectively.
Regarding `Cc1cc(Nc2cc3c(cn2)c(=O)[nH]n3-c2ccc(Cl)cc2)nc(C)n1` [Compound I-65, 1-(4-chlorophenyl)-6-((2,6-dimethylpyrimidin-4-yl)amino)-1,2-dihydro-3H-pyrazolo[4,3-c]pyridin-3-one], the IC50 is greater than 90000 nM in assay [1]; greater than 90 µM in assay [2]; greater than 90 µM in assay [3]; less than 10 µM in assay [4]; greater than 90 µM in assay [5]; greater than 90 µM in assay [6]. For the same compound, the IC50 in assay [7] was greater than 90 µM; in assay [8] it was greater than 90000 nM.
`Cc1cc(Nc2cc3c(cn2)c(=O)[nH]n3-c2ccc(OC(F)(F)F)cc2)nc(C)n1` [Compound I-69, 6-((2,6-dimethylpyrimidin-4-yl)amino)-1-(4-(trifluoromethoxy)phenyl)-1,2-dihydro-3H-pyrazolo[4,3-c]pyridin-3-one]: the IC50 in assay [1] was greater than 90000 nM; in assay [2], greater than 90 µM; in assay [3], greater than 90 µM; in assay [4] it was less than 10 µM; in assay [5], less than 10 µM; in assay [6], greater than 90 µM. In addition, the IC50 in assay [7] is greater than 90 µM; in assay [8], greater than 90000 nM.
Consider `Cc1cc(Nc2cc3c(cn2)c(=O)[nH]n3-c2ccc(OC(F)F)cc2)nc(C)n1` [Compound I-72, 1-(4-(difluoromethoxy)phenyl)-6-((2,6-dimethylpyrimidin-4-yl)amino)-1,2-dihydro-3H-pyrazolo[4,3-c]pyridin-3-one], for which the IC50 was greater than 90000 nM in assay [1]; greater than 90 µM in assay [2]; greater than 90 µM in assay [3]; less than 10 µM in assay [4]; less than 10 µM in assay [5]; greater than 90 µM in assay [6]. The results for the IC50 in assay [7] and in assay [8] were greater than 90 µM and greater than 90000 nM, respectively.
